From patent US9403823B2, “Protein kinase inhibitors” (ORIBASE PHARMA, priority 2012, dated 2016)
Like-named read-outs stand apart in the source and are kept apart here.

Experiments:
A549 cell line = experiment: In vitro cell proliferation assay (MTT), A549; format: cell-based; conditions: Homo sapiens, read-out: EC50, anti-proliferative activity
Method: (§1) 2) In Vitro Cell Proliferation Assays (Table 22 to Table 35)
(§2) Cancer cell lines (5×10^3 cells per well) or HUVEC (1×10^4 cells per well) or HRMEC (1×10^4 cells per well) were distributed in 96-well plates and incubating in duplicate with escalating concentrations (10 nM to 3 μM) of compounds for 72 hr. Cell proliferation was measured using MTT (3[4,5-dimethylthiazol-2-yl]-2,5-diphenyltetrazolium bromide).

FGFR2 = target: T1, FGFR2 (Homo sapiens, UniProt P21802); experiment: In vitro kinase assay (Z'-LYTE), FGFR2; format: biochemical; conditions: read-out: % of inhibition of the kinase compared to the control
T1 construct: purchased Invitrogen
T1 sequence (P21802 22-821): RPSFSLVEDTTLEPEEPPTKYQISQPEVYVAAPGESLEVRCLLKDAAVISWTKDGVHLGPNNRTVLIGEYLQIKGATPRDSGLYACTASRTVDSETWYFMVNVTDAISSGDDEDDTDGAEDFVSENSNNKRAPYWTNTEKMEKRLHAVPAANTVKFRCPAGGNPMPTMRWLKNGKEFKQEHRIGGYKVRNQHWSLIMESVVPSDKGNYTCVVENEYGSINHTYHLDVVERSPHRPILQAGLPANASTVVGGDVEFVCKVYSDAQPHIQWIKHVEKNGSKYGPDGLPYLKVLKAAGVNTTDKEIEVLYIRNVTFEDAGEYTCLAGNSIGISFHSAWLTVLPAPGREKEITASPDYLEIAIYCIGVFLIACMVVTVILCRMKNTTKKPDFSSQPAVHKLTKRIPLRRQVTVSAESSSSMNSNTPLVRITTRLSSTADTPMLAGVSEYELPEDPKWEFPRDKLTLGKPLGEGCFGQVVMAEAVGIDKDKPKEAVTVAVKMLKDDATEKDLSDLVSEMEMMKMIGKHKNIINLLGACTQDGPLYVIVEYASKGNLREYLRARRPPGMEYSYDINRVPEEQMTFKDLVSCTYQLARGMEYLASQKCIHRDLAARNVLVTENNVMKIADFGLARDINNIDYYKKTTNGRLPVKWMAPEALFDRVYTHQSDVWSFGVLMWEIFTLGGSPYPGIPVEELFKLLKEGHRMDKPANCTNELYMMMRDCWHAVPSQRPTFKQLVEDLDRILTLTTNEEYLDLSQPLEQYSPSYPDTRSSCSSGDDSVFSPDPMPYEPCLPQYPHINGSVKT
Method: (§3) 1) In Vitro Kinase Assays (Table 10 to Table 21)
(§4) The inhibitory activity of the compounds on several kinases including BRAF, EGFR (ErbB1), EGFR (ErbB1) T790M L858R, FGFR2, KDR (VEGFR2), PDGFRA (PDGFR alpha), SRC and other was evaluated by Invitrogen using the Z′-LYTE® technology. Briefly, the Z′-LYTE® biochemical assay employs a fluorescence-based, coupled-enzyme format and is based on the differential sensitivity of phosphorylated and non-phosphorylated peptides to proteolytic cleavage. The peptide substrate is labeled with two fluorophores—one at each end—that make up a FRET pair. A ratiometric method, which calculates the ratio (the Emission Ratio) of donor emission to acceptor emission after excitation of the donor fluorophore at 400 nm, is used to quantitate reaction progress.
(§5) The compounds are screened in 1% DMSO (final) in the well. For 10 point titrations, 3-fold serial dilutions are conducted from the starting concentration. All Peptide/Kinase Mixtures are diluted to a 2× working concentration in the appropriate Kinase Buffer. All ATP Solutions are diluted to a 4× working concentration in Kinase Buffer (50 mM HEPES pH 7.5, 0.01% BRIJ-35, 10 mM MgCl2, 1 mM EGTA). ATP Km apparent is previously determined using a Z′-LYTE® assay.
(§6) Each compound was incubated at a concentration of 100 nM (excepted to test the activity against ABL and ABL T315I for which the compounds were incubated at a concentration of 10 μM) and the tables 10 to 21 summarize the results obtained showing the inhibitory power of a compound.

BRAF = target: T2, BRAF (Homo sapiens, UniProt P15056); experiment: In vitro kinase assay (Z'-LYTE), BRAF; format: biochemical; conditions: read-out: % of inhibition of the kinase compared to the control
T2 construct: purchased Invitrogen
T2 sequence (P15056 whole entry): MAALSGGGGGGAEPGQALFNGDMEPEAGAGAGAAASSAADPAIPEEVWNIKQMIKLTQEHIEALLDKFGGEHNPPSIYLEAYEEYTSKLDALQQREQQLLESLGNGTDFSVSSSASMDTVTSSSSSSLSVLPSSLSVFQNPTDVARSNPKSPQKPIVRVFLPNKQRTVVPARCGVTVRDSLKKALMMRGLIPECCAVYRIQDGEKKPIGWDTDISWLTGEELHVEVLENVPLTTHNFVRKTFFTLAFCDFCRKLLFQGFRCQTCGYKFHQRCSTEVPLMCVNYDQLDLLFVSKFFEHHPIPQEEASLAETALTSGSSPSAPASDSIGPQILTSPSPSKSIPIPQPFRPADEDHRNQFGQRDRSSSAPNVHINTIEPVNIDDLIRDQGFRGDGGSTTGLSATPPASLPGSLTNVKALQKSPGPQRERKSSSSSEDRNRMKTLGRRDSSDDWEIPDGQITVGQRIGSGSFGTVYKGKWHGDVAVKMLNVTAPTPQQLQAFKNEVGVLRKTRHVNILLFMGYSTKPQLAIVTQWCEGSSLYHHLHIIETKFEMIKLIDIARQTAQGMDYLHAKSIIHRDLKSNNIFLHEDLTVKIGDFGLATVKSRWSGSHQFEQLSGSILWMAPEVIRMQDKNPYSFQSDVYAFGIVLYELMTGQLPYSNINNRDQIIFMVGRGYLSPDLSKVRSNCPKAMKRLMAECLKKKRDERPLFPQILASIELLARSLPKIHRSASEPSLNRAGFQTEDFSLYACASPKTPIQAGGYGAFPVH
Method: as §3, §4, §5, §6

PDGFRA (PDGFR alpha) = target: T3, PDGFRA (PDGFR alpha) (Homo sapiens, UniProt P16234); experiment: In vitro kinase assay (Z'-LYTE), PDGFRA; format: biochemical; conditions: read-out: % of inhibition of the kinase compared to the control
T3 construct: purchased Invitrogen
T3 sequence (P16234 24-1089): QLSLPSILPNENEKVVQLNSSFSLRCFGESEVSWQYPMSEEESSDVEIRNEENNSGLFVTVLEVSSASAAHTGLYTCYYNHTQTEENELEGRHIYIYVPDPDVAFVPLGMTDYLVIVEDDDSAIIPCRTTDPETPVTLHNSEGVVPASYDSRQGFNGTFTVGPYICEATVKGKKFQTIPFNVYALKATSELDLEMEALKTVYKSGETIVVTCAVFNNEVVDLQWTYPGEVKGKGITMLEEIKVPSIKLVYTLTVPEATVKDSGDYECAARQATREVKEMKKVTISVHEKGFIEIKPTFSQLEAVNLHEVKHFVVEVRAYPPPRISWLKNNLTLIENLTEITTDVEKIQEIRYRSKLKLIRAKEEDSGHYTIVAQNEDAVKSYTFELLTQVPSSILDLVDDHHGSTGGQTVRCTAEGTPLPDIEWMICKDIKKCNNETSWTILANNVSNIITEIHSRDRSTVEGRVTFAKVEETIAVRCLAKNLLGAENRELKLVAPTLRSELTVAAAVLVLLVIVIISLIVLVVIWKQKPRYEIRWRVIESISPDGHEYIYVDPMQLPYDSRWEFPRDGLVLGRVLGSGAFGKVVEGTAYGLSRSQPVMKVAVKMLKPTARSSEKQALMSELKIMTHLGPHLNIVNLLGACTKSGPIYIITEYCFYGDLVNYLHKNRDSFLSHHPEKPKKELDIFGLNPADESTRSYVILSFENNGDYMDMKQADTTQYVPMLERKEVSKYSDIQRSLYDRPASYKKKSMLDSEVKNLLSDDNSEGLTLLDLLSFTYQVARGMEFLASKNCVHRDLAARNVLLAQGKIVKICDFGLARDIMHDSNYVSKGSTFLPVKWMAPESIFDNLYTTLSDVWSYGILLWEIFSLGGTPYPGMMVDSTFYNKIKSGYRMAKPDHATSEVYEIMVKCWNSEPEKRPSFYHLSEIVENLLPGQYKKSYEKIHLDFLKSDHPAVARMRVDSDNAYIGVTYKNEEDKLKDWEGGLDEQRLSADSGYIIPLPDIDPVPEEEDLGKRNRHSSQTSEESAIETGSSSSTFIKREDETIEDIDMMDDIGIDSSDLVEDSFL
Method: as §3, §4, §5, §6

SRC = target: T4, SRC (Homo sapiens, UniProt P12931); experiment: In vitro kinase assay (Z'-LYTE), SRC; format: biochemical; conditions: read-out: % of inhibition of the kinase compared to the control
T4 construct: purchased Invitrogen
T4 sequence (P12931 whole entry): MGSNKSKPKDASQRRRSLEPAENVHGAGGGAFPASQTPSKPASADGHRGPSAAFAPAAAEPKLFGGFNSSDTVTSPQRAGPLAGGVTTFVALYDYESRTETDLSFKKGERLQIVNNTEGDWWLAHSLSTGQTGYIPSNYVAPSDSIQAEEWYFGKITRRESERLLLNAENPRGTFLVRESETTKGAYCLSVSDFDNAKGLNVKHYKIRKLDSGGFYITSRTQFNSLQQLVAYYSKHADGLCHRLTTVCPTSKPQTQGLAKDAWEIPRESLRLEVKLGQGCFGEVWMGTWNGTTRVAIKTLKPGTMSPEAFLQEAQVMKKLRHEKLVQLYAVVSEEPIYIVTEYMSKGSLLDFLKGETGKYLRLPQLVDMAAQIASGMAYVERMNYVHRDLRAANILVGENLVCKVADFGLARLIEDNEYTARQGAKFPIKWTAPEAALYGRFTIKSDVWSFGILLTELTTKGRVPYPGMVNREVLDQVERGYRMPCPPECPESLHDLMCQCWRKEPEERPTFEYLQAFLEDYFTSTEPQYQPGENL
Method: as §3, §4, §5, §6

HUVEC = experiment: In vitro cell proliferation assay (MTT), HUVEC; format: cell-based; conditions: Homo sapiens, read-out: EC50, anti-proliferative activity
Method: as §1, §2

EGFR (ErbB1) = target: T5, EGFR (ErbB1) (Homo sapiens, UniProt P00533); experiment: In vitro kinase assay (Z'-LYTE), EGFR (ErbB1); format: biochemical; conditions: read-out: % of inhibition of the kinase compared to the control
T5 construct: purchased Invitrogen
Method: as §3, §4, §5, §6

KDR (VEGFR2) = target: T6, KDR (VEGFR2) (Homo sapiens, UniProt P35968); experiment: In vitro kinase assay (Z'-LYTE), KDR (VEGFR2); format: biochemical; conditions: read-out: % of inhibition of the kinase compared to the control
T6 construct: purchased Invitrogen
T6 sequence (P35968 20-1356): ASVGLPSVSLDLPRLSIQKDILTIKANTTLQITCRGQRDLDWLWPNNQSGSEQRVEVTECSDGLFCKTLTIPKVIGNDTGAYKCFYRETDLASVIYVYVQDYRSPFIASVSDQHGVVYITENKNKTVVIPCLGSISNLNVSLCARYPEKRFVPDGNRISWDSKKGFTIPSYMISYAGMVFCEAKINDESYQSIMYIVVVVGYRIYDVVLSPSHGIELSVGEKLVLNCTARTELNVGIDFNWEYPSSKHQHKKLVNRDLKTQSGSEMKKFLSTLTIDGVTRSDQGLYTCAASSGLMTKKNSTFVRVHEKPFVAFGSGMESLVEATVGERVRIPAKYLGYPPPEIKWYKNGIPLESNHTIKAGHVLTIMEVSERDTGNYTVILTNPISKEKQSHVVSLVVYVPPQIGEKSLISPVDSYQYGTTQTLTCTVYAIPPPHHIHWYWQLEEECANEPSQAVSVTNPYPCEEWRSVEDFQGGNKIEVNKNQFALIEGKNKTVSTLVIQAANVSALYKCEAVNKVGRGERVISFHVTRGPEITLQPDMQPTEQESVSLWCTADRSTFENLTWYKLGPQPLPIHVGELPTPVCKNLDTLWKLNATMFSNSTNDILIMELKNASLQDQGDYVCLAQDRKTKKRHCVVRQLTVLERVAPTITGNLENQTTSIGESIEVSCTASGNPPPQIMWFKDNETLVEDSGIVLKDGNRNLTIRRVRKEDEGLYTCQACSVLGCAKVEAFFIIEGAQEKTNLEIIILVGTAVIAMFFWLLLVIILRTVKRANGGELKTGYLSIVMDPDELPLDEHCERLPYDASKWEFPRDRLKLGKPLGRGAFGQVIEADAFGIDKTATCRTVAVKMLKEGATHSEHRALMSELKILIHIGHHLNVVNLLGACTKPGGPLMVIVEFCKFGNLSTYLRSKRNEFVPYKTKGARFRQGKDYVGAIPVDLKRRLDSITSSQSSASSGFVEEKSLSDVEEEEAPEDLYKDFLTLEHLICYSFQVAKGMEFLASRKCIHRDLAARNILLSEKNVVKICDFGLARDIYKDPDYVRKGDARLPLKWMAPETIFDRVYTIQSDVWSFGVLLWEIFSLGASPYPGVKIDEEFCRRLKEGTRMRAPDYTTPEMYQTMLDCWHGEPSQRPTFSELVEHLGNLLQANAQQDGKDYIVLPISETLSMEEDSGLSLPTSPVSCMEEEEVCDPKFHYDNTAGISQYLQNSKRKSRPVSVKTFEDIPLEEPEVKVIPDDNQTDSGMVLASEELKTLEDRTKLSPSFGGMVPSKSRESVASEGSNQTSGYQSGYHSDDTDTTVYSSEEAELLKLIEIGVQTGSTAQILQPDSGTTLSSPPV
Method: as §3, §4, §5, §6

HepG2 cell line = experiment: In vitro cell proliferation assay (MTT), HepG2; format: cell-based; conditions: Homo sapiens, read-out: EC50, anti-proliferative activity
Method: as §1, §2

MDA-MB-231 cell line = experiment: In vitro cell proliferation assay (MTT), MDA-MB-231; format: cell-based; conditions: Homo sapiens; MDA-MB-231, 72 hr, MTT; read-out: EC50, anti-proliferative activity
Method: as §1, §2

SMILES | EC50 (A549 cell line; A549, 72 h) [nM] | inhibition at 0.1 µM (FGFR2) [%] | inhibition at 0.1 µM (BRAF) [%] | inhibition at 0.1 µM (PDGFRA (PDGFR alpha)) [%] | inhibition at 0.1 µM (SRC) [%] | EC50 (HUVEC; 72 hr, MTT) [nM] | inhibition at 0.1 µM (EGFR (ErbB1)) [%] | inhibition at 0.1 µM (KDR (VEGFR2)) [%] | EC50 (HepG2 cell line; HepG2, 72 h) [nM] | EC50 (HUVEC; 72 h) [nM] | EC50 (HepG2 cell line; HepG2, 72 hr, MTT) [nM] | EC50 (MDA-MB-231 cell line) [nM] | EC50 (A549 cell line; A549, 72 hr, MTT) [nM]
CCN(CC)C(=O)c1cc2cc(NCc3cc(NC(=O)c4ccc(CN5CCN(C)CC5)c(C(F)(F)F)c4)ccc3C)cnc2[nH]1 [OR1076, 5-{2-Methyl-5-[4-(4-methyl-piperazin-1-ylmethyl)-3-trifluoromethyl-benzoylamino]-benzylamino}-1H-pyrrolo[2,3-b]pyridine-2-carboxylic acid diethylamide] | 100 to 1000 | – | – | – | – | – | – | – | – | – | – | – | –
CC(=O)c1cc2cc(NCc3cc(NC(=O)Nc4cccc(C(F)(F)F)c4)ccc3C)cnc2[nH]1 [OR0895, 1-{3-[(2-Acetyl-1H-pyrrolo[2,3-b]pyridin-5-ylamino)-methyl]-4-methyl-phenyl}-3-(3-trifluoromethyl-phenyl)-urea] | – | < 50 | < 50 | ≥ 50 | < 50 | ≥ 1000 | < 50 | < 50 | 100 to 1000 | – | – | – | –
CC(=O)c1cc2cc(NCc3cc(NC(=O)Cc4cccc(C(F)(F)F)c4)ccc3C)cnc2[nH]1 [OR0968, N-{3-[(2-Acetyl-1H-pyrrolo[2,3-b]pyridin-5-ylamino)-methyl]-4-methyl-phenyl}-2-(3-trifluoromethyl-phenyl)-acetamide] | – | < 50 | ≥ 50 | ≥ 50 | < 50 | ≥ 1000 | < 50 | < 50 | 100 to 1000 | – | – | – | –
CC(=O)c1cc2cc(NCc3cc(NC(=O)c4ccc(Cl)c(C(F)(F)F)c4)ccc3C)cnc2[nH]1 [OR0891, N-{3-[(2-Acetyl-1H-pyrrolo[2,3-b]pyridin-5-ylamino)-methyl]-4-methyl-phenyl}-4-chloro-3-trifluoromethyl-benzamide] | – | < 50 | < 50 | < 50 | < 50 | – | < 50 | < 50 | 100 to 1000 | 100 to 1000 | – | – | –
CC(=O)c1cc2cc(NCc3cc(NC(=O)C4CC4)ccc3C)cnc2[nH]1 [OR0929, Cyclopropanecarboxylic acid {3-[(2-acetyl-1H-pyrrolo[2,3-b]pyridin-5-ylamino)-methyl]-4-methyl-phenyl}-amide] | – | < 50 | < 50 | < 50 | < 50 | ≥ 1000 | < 50 | < 50 | – | – | ≥ 1000 | – | –
CC(=O)c1cc2cc(NCc3cc(NC(=O)c4cc[nH]c4)ccc3C)cnc2[nH]1 [OR0986, 1H-Pyrrole-3-carboxylic acid {3-[(2-acetyl-1H-pyrrolo[2,3-b]pyridin-5-ylamino)-methyl]-4-methyl-phenyl}-amide] | – | < 50 | ≥ 50 | ≥ 50 | < 50 | ≥ 1000 | < 50 | < 50 | – | – | ≥ 1000 | – | –
Cc1ccc(NC(=O)c2cncc(C(F)(F)F)c2)cc1C(=S)Nc1cnc2[nH]c(C(=O)O)cc2c1 [OR1053] | – | < 50 | < 50 | ≥ 50 | ≥ 50 | ≥ 1000 | ≥ 50 | < 50 | – | – | ≥ 1000 | ≥ 1000 | ≥ 1000
CC(=O)c1cc2cc(NCc3cccc(NC(=O)c4cncc(C(F)(F)F)c4)c3)cnc2[nH]1 [OR0950, N-{3-[(2-Acetyl-1H-pyrrolo[2,3-b]pyridin-5-ylamino)-methyl]-phenyl}-5-trifluoromethyl-nicotinamide] | – | < 50 | ≥ 50 | ≥ 50 | < 50 | ≥ 1000 | < 50 | ≥ 50 | 100 to 1000 | – | – | – | –
